Consider 3 molecules from US7144720B2, “Protein and DNA thereof” (Takeda Chemical Industries, Ltd., priority 1998, dated 2006).

Peptide text beside a SMILES is read from it. * marks the point of attachment. Cbz = O=C(OCc1ccccc1)*; NHOH = ON*

Assay type in all cases: biochemical
In one assay the target is T1, ADAM protein (Homo sapiens, UniProt Q9UKQ2).
T1 construct: made in house; host or cells: Escherichia coli BL21 (DE3)
T1 sequence (Q9UKQ2 199-495): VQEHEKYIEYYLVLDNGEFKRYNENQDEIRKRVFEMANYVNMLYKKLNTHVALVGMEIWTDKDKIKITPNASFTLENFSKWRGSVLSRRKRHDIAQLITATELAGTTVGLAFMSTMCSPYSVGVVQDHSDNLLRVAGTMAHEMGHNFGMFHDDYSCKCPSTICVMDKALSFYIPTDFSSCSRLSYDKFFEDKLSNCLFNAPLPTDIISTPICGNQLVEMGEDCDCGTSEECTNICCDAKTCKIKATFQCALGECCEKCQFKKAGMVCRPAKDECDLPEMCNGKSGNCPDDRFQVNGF
The assay is described as follows: Inhibition of the protease activity of the ADAM protein by test compounds. To be noted: Nma-Pro-Lys-Pro-Leu-Ala-Nva-Trp-Lys(DNP)-NH2 substrate, 37° C., 2 hours; read-out: IC50 value (concentration of a test compound which 50% inhibits the protease activity). On the procedure:
(§1) An enzymatic reaction was initiated by adding 75 μl of a buffer (83.3 mM Tris-HCl, pH 7.5, 16.7 mM NaCl, 1.67 mM CaCl2, 16.7 μM CoCl2, and 0.067% BSA) to a solution (25 μl) of the ADAM protein obtained according to the same manner as that of Example 3, and adding 25 μl of a solution of a substrate (50 μM Nma-Pro-Lys-Pro-Leu-Ala-Nva-Trp-Lys(DNP)-NH2, 0.05% BSA, and 5% DMSO). After a temperature was held at 37° C. for 2 hours, 100 μl of a 0.5M acetate buffer (pH 3.0) was added to stop the enzymatic reaction. The fluorescent intensity in the case of addition of no an enzyme solution [fluorescent intensity was measured at an excitation wavelength of 340 nm and a measuring wavelength of 450 nm using a fluorescent platereader (Corona MTP-32)] was 10, while the fluorescent intensity in the case of addition of the enzyme solution was 180.
10 μl of a test compound adjusted to the predetermined concentration (dissolved in 50% DMSO) was added to the above activity measuring system. […] From this, it was considered that search on a substance which regulates (inhibits or promotes) the protease activity of the present ADAM protein can be conducted using the present assay system.

The target of assay [1] is T2, Nma-Pro-Lys-Pro-Leu-Ala-Nva-Trp-Lys(DNP)-NH2 (Homo sapiens, UniProt Q9UKQ2).
T2 construct: made in house; host or cells: Escherichia coli BL21 (DE3)
T2 sequence (Q9UKQ2 199-495): T1 sequence (Q9UKQ2 199-495)
The assay is described as follows: Protease activity of ADAM protein with Nma peptide substrate. The note with it: 37° C. for 2 hours; excitation 340 nm, measuring 450 nm; intensity 10 without enzyme solution. The method, then: as §1

Assay [2] addresses T3, MOCAc-Arg-Pro-Lys-Pro-Tyr-Ala-Nva-Trp-Met-Lys(DNP)-NH2 (Homo sapiens, UniProt Q9UKQ2).
T3 construct: made in house; host or cells: Escherichia coli BL21 (DE3)
T3 sequence (Q9UKQ2 199-495): T1 sequence (Q9UKQ2 199-495)
The assay is described as follows: Detection of the protease activity of recombinant ADAM protein (fluorogenic MOCAc peptide substrate). To be noted: 37° C. for 22 hour; excitation 328 nm, 393 nm; 10 μM substrate; intensity 2 when no protein added. The method, then: 30 μL of a buffer [250 mM Tris-hydrochloric acid (pH7.5), 5 mM calcium chloride, and 10 μM zinc chloride] and 20 μL of the recombinant ADAM protein (0.8 mg/mL) obtained in Example 3 were added to a 96-well plate (Fluoro B plate, manufactured by Dainihonseiyaku). After preincuvation at 37° C. for 10 minutes, an enzymatic reaction was initiated by adding 100 μL of a 10 μM substrate [MOCAc-Arg-Pro-Lys-Pro-Tyr-Ala-Nva-Trp -Met-Lys(DNP)-NH2, manufactured by Peptide Laboratory]. After the reaction at 37° C. for 22 hour, the fluorescent intensity in the reaction solution was measured at an excitation wave length of 328 nm and […] wave length of 393 nm using a microplatereader (manufactured by Applied Biosystems). The fluorescent intensity was 2 when no recombinant ADAM protein was added, while the fluorescent intensity of 70 was shown when the protein was added. From these, it was made clear that the present ADAM protein had the protease activity. It is considered that search of a substance which regulates (inhibits and promotes) the protease activity of the present ADAM protein is possible using this assay.

With `CCCCC[C@H](CC(=O)NO)C(=O)N[C@H](C(=O)N1CCC[C@H]1CO)C(C)C` [actinonin], on ADAM protein, the IC50 worked out at 600 µM. Still for that read-out and setting: next, `CC(C)C[C@H](NC(=O)[C@@H]1CCCN1C(=O)OCc1ccccc1)C(=O)NCC(=O)NO` [N-CBZ-Pro-Leu-Gly-hydroxamate] (Cbz-Pro-Leu-Gly-{NHOH}): roughly 100 µM.

B1: recombinant ADAM protein: about 35 kDa His-tagged metalloprotease and disintegrin region of the novel human ADAM protein, expressed in Escherichia coli from pMDH (protein)
chain: T1 sequence (Q9UKQ2 199-495)
modifications: left off: small tags and cut ends
notes: about 35 kDa His-tagged metalloprotease and disintegrin region of the novel human ADAM protein, expressed in Escherichia coli from pMDH
B1: the fluorescent intensity in assay [1] was found to be 180; in assay [2] it was 70.
